According to PubChem BioAssay (NCI):
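The compound was tested at five concentrations on cells cultured in 96-well plates, with a 48-hour exposure period. TGI denotes the concentration required for complete inhibition of growth.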

Key:
Test in all cases: NCI-60 cell line screen, 48 h
786-0 renal = test system: 786-0 renal
A498 renal = test system: A498 renal
A549 NSCLC = test system: A549 NSCLC
ACHN renal = test system: ACHN renal
BT-549 breast = test system: BT-549 breast
CAKI-1 renal = test system: CAKI-1 renal
CCRF-CEM leukemia = test system: CCRF-CEM leukemia
COLO 205 colon = test system: COLO 205 colon
DU-145 prostate = test system: DU-145 prostate
EKVX NSCLC = test system: EKVX NSCLC
HCC-2998 colon = test system: HCC-2998 colon
HCT-116 colon = test system: HCT-116 colon
HCT-15 colon = test system: HCT-15 colon
HL-60(TB) leukemia = test system: HL-60(TB) leukemia
HOP-62 NSCLC = test system: HOP-62 NSCLC
HOP-92 NSCLC = test system: HOP-92 NSCLC
HS 578T breast = test system: HS 578T breast
HT29 colon = test system: HT29 colon
IGROV1 ovarian = test system: IGROV1 ovarian
K-562 leukemia = test system: K-562 leukemia
KM12 colon = test system: KM12 colon
LOX IMVI melanoma = test system: LOX IMVI melanoma
M14 melanoma = test system: M14 melanoma
MALME-3M melanoma = test system: MALME-3M melanoma
MCF7 breast = test system: MCF7 breast
MDA-MB-435 = test system: MDA-MB-435
MDA-N = test system: MDA-N
MOLT-4 leukemia = test system: MOLT-4 leukemia
NCI-H226 lung = test system: NCI-H226 lung
NCI-H23 lung = test system: NCI-H23 lung
NCI-H460 lung = test system: NCI-H460 lung
NCI-H522 lung = test system: NCI-H522 lung
NCI/ADR-RES ovarian = test system: NCI/ADR-RES ovarian
OVCAR-3 ovarian = test system: OVCAR-3 ovarian
OVCAR-4 ovarian = test system: OVCAR-4 ovarian
OVCAR-5 ovarian = test system: OVCAR-5 ovarian
OVCAR-8 ovarian = test system: OVCAR-8 ovarian
PC-3 prostate = test system: PC-3 prostate
RPMI-8226 leukemia = test system: RPMI-8226 leukemia
RXF 393 renal = test system: RXF 393 renal
SF-268 CNS = test system: SF-268 CNS
SF-295 CNS = test system: SF-295 CNS
SF-539 CNS = test system: SF-539 CNS
SK-MEL-2 melanoma = test system: SK-MEL-2 melanoma
SK-MEL-5 melanoma = test system: SK-MEL-5 melanoma
SK-OV-3 ovarian = test system: SK-OV-3 ovarian
SN12C renal = test system: SN12C renal
SNB-19 CNS = test system: SNB-19 CNS
SNB-75 CNS = test system: SNB-75 CNS
SR leukemia = test system: SR leukemia
SW-620 colon = test system: SW-620 colon
T-47D breast = test system: T-47D breast
TK-10 renal = test system: TK-10 renal
U251 CNS = test system: U251 CNS
UACC-257 melanoma = test system: UACC-257 melanoma
UACC-62 melanoma = test system: UACC-62 melanoma
UO-31 renal = test system: UO-31 renal
MDA-MB-231 breast = test system: MDA-MB-231 breast

CCOC(=O)CCC(C(=O)OCC)n1nc2ccc(Nc3c(C)[n+]([O-])c4cc(F)c(OCC)cc4[n+]3[O-])cc2n1 (stereo not drawn)
TGI (786-0 renal): 71.5 µM
TGI (A498 renal): > 100 µM
TGI (A549 NSCLC): > 100 µM
TGI (ACHN renal): > 100 µM
TGI (BT-549 breast): > 100 µM
TGI (CAKI-1 renal): > 100 µM
TGI (CCRF-CEM leukemia): > 100 µM
TGI (COLO 205 colon): > 100 µM
TGI (DU-145 prostate): > 100 µM
TGI (EKVX NSCLC): 98.1 µM
TGI (HCC-2998 colon): > 100 µM
TGI (HCT-116 colon): > 100 µM
TGI (HCT-15 colon): > 100 µM
TGI (HL-60(TB) leukemia): > 100 µM
TGI (HOP-62 NSCLC): 40.8 µM
TGI (HOP-92 NSCLC): 87.8 µM
TGI (HS 578T breast): 90.7 µM
TGI (HT29 colon): > 100 µM
TGI (IGROV1 ovarian): > 100 µM
TGI (K-562 leukemia): > 100 µM
TGI (KM12 colon): > 100 µM
TGI (LOX IMVI melanoma): > 100 µM
TGI (M14 melanoma): > 100 µM
TGI (MALME-3M melanoma): > 100 µM
TGI (MCF7 breast): > 100 µM
TGI (MDA-MB-435): > 100 µM
TGI (MDA-N): > 100 µM
TGI (MOLT-4 leukemia): > 100 µM
TGI (NCI-H226 lung): > 100 µM
TGI (NCI-H23 lung): > 100 µM
TGI (NCI-H460 lung): > 100 µM
TGI (NCI-H522 lung): > 100 µM
TGI (NCI/ADR-RES ovarian): > 100 µM
TGI (OVCAR-3 ovarian): > 100 µM
TGI (OVCAR-4 ovarian): > 100 µM
TGI (OVCAR-5 ovarian): > 100 µM
TGI (OVCAR-8 ovarian): > 100 µM
TGI (PC-3 prostate): > 100 µM
TGI (RPMI-8226 leukemia): > 100 µM
TGI (RXF 393 renal): 32.5 µM
TGI (SF-268 CNS): 37.6 µM
TGI (SF-295 CNS): > 100 µM
TGI (SF-539 CNS): 63.1 µM
TGI (SK-MEL-2 melanoma): > 100 µM
TGI (SK-MEL-5 melanoma): > 100 µM
TGI (SK-OV-3 ovarian): > 100 µM
TGI (SN12C renal): > 100 µM
TGI (SNB-19 CNS): > 100 µM
TGI (SNB-75 CNS): 32.9 µM
TGI (SR leukemia): > 100 µM
TGI (SW-620 colon): > 100 µM
TGI (T-47D breast): > 100 µM
TGI (TK-10 renal): > 100 µM
TGI (U251 CNS): 62.7 µM
TGI (UACC-257 melanoma): > 100 µM
TGI (UACC-62 melanoma): > 100 µM
TGI (UO-31 renal): > 100 µM

CC(C)(C)C1CCC2c3c([nH]c4ccccc34)C3C(=O)N(c4ccccc4[N+](=O)[O-])C(=O)C3C2C1 (stereo not drawn)
TGI (786-0 renal): 28.9 µM
TGI (A498 renal): 36.5 µM
TGI (A549 NSCLC): 33.9 µM
TGI (ACHN renal): 61.3 µM
TGI (BT-549 breast): 68.5 µM
TGI (CAKI-1 renal): 32.4 µM
TGI (CCRF-CEM leukemia): 53.1 µM
TGI (COLO 205 colon): 24.1 µM
TGI (DU-145 prostate): 22.4 µM
TGI (EKVX NSCLC): 44.7 µM
TGI (HCC-2998 colon): 18.2 µM
TGI (HCT-116 colon): 22.7 µM
TGI (HCT-15 colon): 37.6 µM
TGI (HL-60(TB) leukemia): 27.5 µM
TGI (HOP-62 NSCLC): 21.5 µM
TGI (HOP-92 NSCLC): 9.1 µM
TGI (HS 578T breast): 49.5 µM
TGI (HT29 colon): 20.1 µM
TGI (IGROV1 ovarian): 76 µM
TGI (K-562 leukemia): 27.8 µM
TGI (LOX IMVI melanoma): 31.4 µM
TGI (M14 melanoma): 33.8 µM
TGI (MALME-3M melanoma): 43 µM
TGI (MCF7 breast): 39.1 µM
TGI (MDA-MB-231 breast): 27.2 µM
TGI (MDA-MB-435): > 100 µM
TGI (MDA-N): 43.9 µM
TGI (NCI-H226 lung): 57.2 µM
TGI (NCI-H23 lung): 22.1 µM
TGI (NCI-H460 lung): 27.6 µM
TGI (NCI/ADR-RES ovarian): > 100 µM
TGI (OVCAR-3 ovarian): 28.6 µM
TGI (OVCAR-5 ovarian): 50.5 µM
TGI (OVCAR-8 ovarian): > 100 µM
TGI (PC-3 prostate): 26.1 µM
TGI (RPMI-8226 leukemia): > 100 µM
TGI (RXF 393 renal): 19 µM
TGI (SF-295 CNS): 31.2 µM
TGI (SF-539 CNS): 61.3 µM
TGI (SK-MEL-2 melanoma): 35.6 µM
TGI (SK-MEL-5 melanoma): 26.7 µM
TGI (SK-OV-3 ovarian): > 100 µM
TGI (SN12C renal): 64.3 µM
TGI (SNB-19 CNS): 82.5 µM
TGI (SR leukemia): > 100 µM
TGI (SW-620 colon): 27 µM
TGI (TK-10 renal): 43.3 µM
TGI (U251 CNS): 40.3 µM
TGI (UACC-257 melanoma): 90.6 µM
TGI (UACC-62 melanoma): 28.2 µM
TGI (UO-31 renal): > 100 µM
